Source: ChEMBL document CHEMBL1201862, “PubChem BioAssay data set” (2004)
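Growth conditions: 96-well plates. Treatment: test compound, 48 hours, 5 concentrations. Analysis: linear interpolation between bracketing concentrations; unreached endpoints set to highest concentration. GI50: concentration for 50% inhibition of growth.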 Active and inactive are the calls of the source. No stated cut-off is given here; in the data, active = GI50 up to about 1.1 µM and inactive = higher.

Key:
Experiment in all cases: NCI tumour cell line growth inhibition, 48 h
HT-29 = test system: HT-29
SF-295 = test system: SF-295
Malme-3M = test system: Malme-3M
MOLT-4 = test system: MOLT-4
CAKI-1 = test system: CAKI-1
IGROV-1 = test system: IGROV-1
A498 = test system: A498
NCI-H23 = test system: NCI-H23
OVCAR-4 = test system: OVCAR-4
NCI-H226 = test system: NCI-H226
RPMI-8226 = test system: RPMI-8226
NCI-H522 = test system: NCI-H522
OVCAR-8 = test system: OVCAR-8
SN12C = test system: SN12C
SK-MEL-28 = test system: SK-MEL-28
EKVX = test system: EKVX
K562 = test system: K562
LOX IMVI = test system: LOX IMVI

Measured: GI50

C/C(=C\CC/C=C(\C)CC/C=C(\C)CCC1SC1(C)C)CC/C=C(\C)CCC1OC1(C)C (stereo not given)
inactive: HT-29 > 100 µM | SF-295 > 100 µM | Malme-3M > 100 µM | MOLT-4 > 100 µM | CAKI-1 > 100 µM | IGROV-1 > 100 µM | A498 > 100 µM | NCI-H23 > 100 µM | OVCAR-4 > 100 µM | NCI-H226 > 100 µM | RPMI-8226 > 100 µM | NCI-H522 47.3 µM | OVCAR-8 > 100 µM | SN12C > 100 µM | SK-MEL-28 > 100 µM | EKVX > 100 µM | K562 > 100 µM

O=[N+]([O-])C1(CO)COC(CCc2ccccc2)OC1 (stereo not given)
inactive: HT-29 > 100 µM | SF-295 > 100 µM | Malme-3M > 100 µM | MOLT-4 > 100 µM | IGROV-1 > 100 µM | LOX IMVI > 100 µM | NCI-H23 > 100 µM | OVCAR-4 > 100 µM | NCI-H522 > 100 µM | OVCAR-8 > 100 µM | SN12C > 100 µM | SK-MEL-28 > 100 µM | EKVX > 100 µM | K562 > 100 µM

O=C(N/C(=C\c1cccc([N+](=O)[O-])c1)c1nc2ccccc2[nH]1)c1ccccc1
inactive: HT-29 28.9 µM | Malme-3M > 100 µM | MOLT-4 32.9 µM | CAKI-1 59.4 µM | IGROV-1 91.4 µM | A498 35.8 µM | NCI-H23 49.1 µM | OVCAR-4 > 100 µM | NCI-H226 51.6 µM | RPMI-8226 40.8 µM | NCI-H522 36.8 µM | OVCAR-8 30.3 µM | SN12C 68.7 µM | SK-MEL-28 18.3 µM | EKVX > 100 µM | K562 50.5 µM

COc1ccc(Oc2nc3c(N)cc(C(F)(F)F)cc3nc2-c2ccccc2)cc1
inactive: HT-29 10.8 µM | SF-295 18.5 µM | MOLT-4 42.2 µM | CAKI-1 21.8 µM | IGROV-1 13.6 µM | A498 28.2 µM | LOX IMVI 17.3 µM | NCI-H23 50.9 µM | OVCAR-4 > 100 µM | NCI-H226 11.9 µM | RPMI-8226 63 µM | OVCAR-8 26.9 µM | SK-MEL-28 85.9 µM | EKVX 12.8 µM | K562 > 100 µM

Cc1ccc(C2=C(c3ccc(C)cc3)C(c3ccc(C)cc3)=C(c3ccc(C)cc3)C2=O)cc1
inactive: HT-29 > 100 µM | SF-295 > 100 µM | Malme-3M > 100 µM | MOLT-4 > 100 µM | IGROV-1 > 100 µM | A498 > 100 µM | NCI-H23 > 100 µM | NCI-H226 > 100 µM | RPMI-8226 > 100 µM | NCI-H522 > 100 µM | OVCAR-8 > 100 µM | SN12C > 100 µM | SK-MEL-28 > 100 µM | EKVX > 100 µM | K562 > 100 µM

CC12CC3C(CC1SCC(=O)O2)C3(C)C (stereo not given)
inactive: HT-29 > 100 µM | SF-295 > 100 µM | Malme-3M > 100 µM | MOLT-4 > 100 µM | IGROV-1 > 100 µM | A498 16.6 µM | NCI-H23 > 100 µM | OVCAR-4 > 100 µM | RPMI-8226 > 100 µM | OVCAR-8 > 100 µM | SN12C > 100 µM | SK-MEL-28 > 100 µM | EKVX > 100 µM | K562 > 100 µM

CC(C)C(/C=C/c1ccc(Br)cc1)=N\NC(N)=O
inactive: HT-29 > 100 µM | SF-295 > 100 µM | MOLT-4 > 100 µM | CAKI-1 > 100 µM | IGROV-1 > 100 µM | LOX IMVI > 100 µM | NCI-H23 > 100 µM | OVCAR-4 > 100 µM | NCI-H226 > 100 µM | RPMI-8226 > 100 µM | NCI-H522 70.3 µM | OVCAR-8 > 100 µM | SN12C > 100 µM | SK-MEL-28 > 100 µM | EKVX > 100 µM | K562 > 100 µM

COC(=O)c1nc(-c2ccc(Cl)c(Cl)c2)nc2ccc(Cl)cc12
inactive: HT-29 > 100 µM | SF-295 37.7 µM | Malme-3M > 100 µM | MOLT-4 > 10 µM | CAKI-1 > 10 µM | IGROV-1 94.4 µM | A498 73.1 µM | NCI-H23 68.5 µM | RPMI-8226 > 100 µM | NCI-H522 > 10 µM | OVCAR-8 47.4 µM | SN12C > 100 µM | SK-MEL-28 > 100 µM | EKVX 59.7 µM | K562 > 10 µM

Cc1cn(C2CC(OC3CCCCO3)C(CO)O2)c(=O)[nH]c1=O (stereo not given)
inactive: HT-29 > 100 µM | SF-295 > 100 µM | Malme-3M > 100 µM | MOLT-4 > 100 µM | IGROV-1 > 100 µM | A498 > 100 µM | LOX IMVI > 100 µM | NCI-H23 > 100 µM | OVCAR-4 > 100 µM | NCI-H226 > 100 µM | RPMI-8226 > 100 µM | NCI-H522 > 100 µM | OVCAR-8 > 100 µM | SN12C > 100 µM | SK-MEL-28 > 100 µM | EKVX > 100 µM | K562 > 100 µM

CC(=O)OC12c3ccccc3C1CCCCCC21OCCCO1 (stereo not given)
inactive: HT-29 > 100 µM | SF-295 > 100 µM | MOLT-4 > 100 µM | CAKI-1 > 100 µM | IGROV-1 > 100 µM | A498 > 100 µM | LOX IMVI > 100 µM | NCI-H23 > 100 µM | OVCAR-4 > 100 µM | NCI-H226 > 100 µM | RPMI-8226 > 100 µM | NCI-H522 > 100 µM | OVCAR-8 > 100 µM | SN12C > 100 µM | SK-MEL-28 > 100 µM | K562 > 100 µM

CCc1ccc(/C(C)=N/NC(N)=S)cc1
inactive: HT-29 90.4 µM | SF-295 > 100 µM | Malme-3M 25.8 µM | MOLT-4 17.2 µM | CAKI-1 70 µM | IGROV-1 > 100 µM | NCI-H23 > 100 µM | OVCAR-4 37.6 µM | RPMI-8226 > 100 µM | OVCAR-8 > 100 µM | SK-MEL-28 > 100 µM | EKVX > 100 µM | K562 57.3 µM

Cc1cc(C)nc(NS(=O)(=O)c2ccc(NC(=O)c3cccc4c(Nc5ccc(S(=O)(=O)N=C(N)N)cc5)c5ccccc5nc34)cc2)n1
inactive: HT-29 37.1 µM | SF-295 27.4 µM | Malme-3M > 100 µM | MOLT-4 32.8 µM | CAKI-1 20.5 µM | IGROV-1 40.4 µM | A498 > 100 µM | LOX IMVI 39.5 µM | NCI-H23 40 µM | OVCAR-4 14.5 µM | RPMI-8226 15.1 µM | NCI-H522 44.3 µM | OVCAR-8 7.94 µM | SN12C 50.7 µM | SK-MEL-28 33.4 µM | EKVX 35 µM | K562 7.6 µM

CC(=O)Nc1ccc(-c2nnc(SCC(=O)Nc3ccc([N+](=O)[O-])cc3)o2)cc1
inactive: HT-29 13.4 µM | SF-295 14.1 µM | Malme-3M 14 µM | MOLT-4 12.2 µM | CAKI-1 14.3 µM | IGROV-1 11 µM | LOX IMVI 5.15 µM | NCI-H23 12.2 µM | OVCAR-4 13.4 µM | NCI-H226 15.7 µM | RPMI-8226 24.7 µM | NCI-H522 7.85 µM | OVCAR-8 14.6 µM | SN12C 16.3 µM | SK-MEL-28 14.3 µM | K562 36.4 µM

O=C(CCc1n[nH]c(=S)o1)Nc1cc(Cl)ccc1Cl
inactive: HT-29 52.8 µM | SF-295 > 100 µM | Malme-3M > 100 µM | MOLT-4 > 100 µM | CAKI-1 > 100 µM | IGROV-1 > 100 µM | A498 > 100 µM | NCI-H23 > 100 µM | OVCAR-4 > 100 µM | NCI-H226 > 100 µM | RPMI-8226 19.1 µM | OVCAR-8 > 100 µM | SN12C > 100 µM | SK-MEL-28 > 100 µM | EKVX > 100 µM | K562 23.9 µM

C[Si](C)(C)/C=C\CCO
inactive: HT-29 > 100 µM | SF-295 > 100 µM | Malme-3M > 100 µM | MOLT-4 > 100 µM | IGROV-1 > 100 µM | A498 > 100 µM | LOX IMVI > 100 µM | NCI-H23 > 100 µM | RPMI-8226 > 100 µM | NCI-H522 > 100 µM | OVCAR-8 > 100 µM | SN12C > 100 µM | SK-MEL-28 > 100 µM | EKVX > 100 µM | K562 > 100 µM

c1ccc(C2(c3ccccc3)SSC3(S2)C2CC4CC(C2)CC3C4)cc1 (stereo not given)
inactive: HT-29 > 100 µM | SF-295 > 100 µM | Malme-3M > 100 µM | MOLT-4 > 56.6 µM | CAKI-1 > 100 µM | IGROV-1 > 100 µM | A498 > 100 µM | LOX IMVI > 100 µM | NCI-H23 > 100 µM | OVCAR-4 > 100 µM | RPMI-8226 37.2 µM | OVCAR-8 > 100 µM | SN12C > 100 µM | SK-MEL-28 > 100 µM | EKVX > 100 µM | K562 > 100 µM

N#CC(C(=O)/C(=N\NC(N)=O)C(C#N)c1ccc(Cl)cc1)c1ccc(Cl)cc1 (stereo not given)
inactive: HT-29 > 100 µM | SF-295 > 100 µM | Malme-3M > 100 µM | MOLT-4 > 100 µM | IGROV-1 > 100 µM | A498 > 100 µM | LOX IMVI > 100 µM | NCI-H23 > 100 µM | OVCAR-4 > 100 µM | NCI-H226 > 100 µM | RPMI-8226 > 100 µM | NCI-H522 > 100 µM | OVCAR-8 > 100 µM | SN12C > 100 µM | SK-MEL-28 > 100 µM | EKVX > 100 µM | K562 > 100 µM
